Nc1ccc(Oc2ccc(N)cc2)cc1
solubility (mole fraction)
Settings | 283.15 K | 288.15 K | 293.15 K | 298.15 K | 303.15 K | 308.15 K | 313.15 K | 318.15 K | 323.15 K
in 2-ethoxyethanol | 0.0274 | 0.0288 | 0.0306 | 0.0329 | 0.0358 | 0.0394 | 0.0436 | 0.0486 | 0.0544
in DMAc | 0.133 | 0.136 | 0.139 | 0.143 | 0.147 | 0.152 | 0.156 | 0.162 | 0.168
in DMF | 0.104 | 0.107 | 0.11 | 0.115 | 0.12 | 0.126 | 0.132 | 0.138 | 0.145
in DMSO | – | – | – | 0.153 | 0.159 | 0.165 | 0.172 | 0.179 | 0.187
in ethanol | 0.000434 | 0.000549 | 0.0007 | 0.00089 | 0.00113 | 0.00143 | 0.00176 | 0.00217 | 0.0027
in methanol | 0.00114 | 0.00132 | 0.00153 | 0.00178 | 0.00208 | 0.00246 | 0.00293 | 0.00349 | 0.00416

From BigSolDB 2.1
